The results in this text go back to ChEMBL document CHEMBL1126375, “Synthesis of chiral phosphorus mustards derived from serine” (Bioorg Med Chem Lett, 1992).

Activity calls are given as the source filed them. The calls are words filed in the database; no cut-off is given here.

The test system of test [1] is Human immunodeficiency virus 1. Briefly: Compound was tested for in vitro anti-human immunodeficiency virus activity; NA=No activity. It counts as functional, organism-based.
In a further test the test system is Tumor cell line. Briefly: Compound was tested for in vitro activity against tumor cell lines; NA=No activity. It counts as functional, cell-based.

With `COC(=O)[C@H]1CO[P@](=O)(N(CCCl)CCCl)N1Cc1ccccc1`, the outcome (in test [1]; in the test on Tumor cell line) was inactive.
Consider `COC(=O)[C@@H]1CO[P@@](=O)(N(CCCl)CCCl)N1Cc1ccccc1` (stereo in doubt; 5a), for which the outcome (in test [1]; in the test on Tumor cell line) was inactive.
In the case of `COC(=O)[C@@H]1CO[P@@](=O)(N(CCCl)CCCl)N1Cc1ccccc1` (stereo in doubt; 5b), the outcome (in test [1]; with Tumor cell line) was inactive.
Regarding `COC(=O)[C@@H]1CO[P@@](=O)(N(CCCl)CCCl)N1Cc1ccccc1` (stereo in doubt; 7a), the result (in test [1]; with Tumor cell line) was inactive.
